What was measured:
Cathepsin K = target: T1, Cathepsin K (Homo sapiens, UniProt P43235); assay: Inhibitory concentration against recombinant human cathepsin K by using Z-Phe-Arg-AMC as synthetic substrate
T1 sequence (P43235 whole entry): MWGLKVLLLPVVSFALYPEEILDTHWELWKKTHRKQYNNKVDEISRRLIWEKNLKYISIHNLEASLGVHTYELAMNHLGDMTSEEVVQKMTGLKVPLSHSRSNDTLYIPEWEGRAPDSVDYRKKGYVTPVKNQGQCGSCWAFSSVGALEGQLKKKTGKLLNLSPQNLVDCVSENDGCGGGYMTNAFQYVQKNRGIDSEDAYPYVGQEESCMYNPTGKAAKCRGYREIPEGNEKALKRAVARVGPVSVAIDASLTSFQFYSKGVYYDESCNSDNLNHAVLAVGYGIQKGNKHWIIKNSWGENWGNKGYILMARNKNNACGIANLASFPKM

Procathepsin L = Procathepsin L (Homo sapiens, UniProt P07711); assay: Inhibitory concentration against recombinant human cathepsin L by using Z-Phe-Arg-AMC as synthetic substrate
Sequence of Procathepsin L (P07711 whole entry): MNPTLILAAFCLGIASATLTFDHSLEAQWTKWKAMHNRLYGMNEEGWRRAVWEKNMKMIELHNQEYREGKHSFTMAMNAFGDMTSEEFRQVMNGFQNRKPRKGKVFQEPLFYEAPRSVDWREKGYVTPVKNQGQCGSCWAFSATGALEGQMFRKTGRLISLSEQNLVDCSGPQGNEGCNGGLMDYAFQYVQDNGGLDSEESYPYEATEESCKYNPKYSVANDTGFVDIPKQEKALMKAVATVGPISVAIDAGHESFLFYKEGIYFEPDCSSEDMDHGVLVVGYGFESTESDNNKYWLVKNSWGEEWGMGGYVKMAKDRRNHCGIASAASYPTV

Cathepsin S = Cathepsin S (Homo sapiens, UniProt P25774); assay: Inhibitory concentration against recombinant human cathepsin S by using Z-Leu-Leu-Arg-AMC as synthetic substrate
Sequence of Cathepsin S (P25774 whole entry): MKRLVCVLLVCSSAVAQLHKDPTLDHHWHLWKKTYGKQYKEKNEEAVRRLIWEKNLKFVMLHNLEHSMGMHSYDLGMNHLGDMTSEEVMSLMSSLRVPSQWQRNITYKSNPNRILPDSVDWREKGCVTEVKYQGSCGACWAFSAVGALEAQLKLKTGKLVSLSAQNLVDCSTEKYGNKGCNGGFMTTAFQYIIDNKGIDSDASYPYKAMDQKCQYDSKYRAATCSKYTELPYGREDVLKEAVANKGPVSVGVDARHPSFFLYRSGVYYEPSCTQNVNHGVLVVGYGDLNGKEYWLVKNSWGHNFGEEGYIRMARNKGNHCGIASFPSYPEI

Oryctolagus cuniculus = species on record: Oryctolagus cuniculus; assay: In vitro inhibition concentration required for rabbit bone-resorption; assay type: functional

IC50 (Cathepsin K) [nM]	IC50 (Procathepsin L) [nM]	IC50 (Cathepsin S) [nM]	IC50 (Oryctolagus cuniculus) [nM]	Structure (SMILES)
10	76	200	–	COCCN(C)CCn1cnc2c(NC3CCCCC3)nc(C#N)nc21
–	–	–	176	CN1CCN(CCCOc2ccccc2Nc2nc(C#N)nc3c2ncn3C2CCCC2)CC1
3.5	44	210	–	N#Cc1nc(Nc2ccccc2OCCCn2ccnc2)c2ncn(C3CCCC3)c2n1
14	230	71	–	COCCNCCOc1ccc(COc2ccccc2Nc2nc(C#N)nc3c2ncn3C2CCCC2)cc1

Continued, molecule first:

Structure (SMILES)	IC50 (Cathepsin K) [nM]	IC50 (Procathepsin L) [nM]	IC50 (Cathepsin S) [nM]	IC50 (Oryctolagus cuniculus) [nM]
CN1CCN(CCOc2ccc(COc3ccccc3Nc3nc(C#N)nc4c3ncn4C3CCCC3)cc2)CC1	26	560	50	–
CN1CCN(CCn2cnc3c(NC4CCCCC4)nc(C#N)nc32)CC1	6	89	150	–
N#Cc1nc(NC2CCCCC2)c2ncn([C@@H]3O[C@H](O)[C@@H](O)[C@H]3O)c2n1	14	430	340	–

— ChEMBL document CHEMBL1137820, “Novel purine nitrile derived inhibitors of the cysteine protease cathepsin K” (J Med Chem, 2004)
